Measured values taken from patent publication US11691962B2 (eXIthera Pharmaceuticals, Inc., priority 2018, dated 2023).
pIC50: −log10 of the molar value.

Key:
Assay type in all cases: biochemical
Trypsin = assay: Dose response assay for protease inhibitors: trypsin; details: selectivity, trypsin over Factor XIa
Outline: (§1)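 Fluorogenic AMC-peptide cleavage in 20 mM Hepes pH 7.4, 150 mM NaCl, 0.02% Tween 20; 100 μM stock substrate dilution (Glp-Pro-Arg-AMC for thrombin/trypsin; Pro-Phe-Arg-AMC or Boc-Leu-Gly-Arg-AMC for Factor Xa). Enzyme diluted to 0.5 nM, added last to two-fold compound series; kinetic read at 30° C, 30 min (Factor Xa 60 min); IC50 fitted.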

Factor XIa = Factor XIa (Homo sapiens (Human), UniProt P03951); assay: Factor XIa enzyme inhibition assay (dose response, fluorogenic AMC substrate); details: read-out: hFXIa IC50
Outline: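 Human FXIa at 0.25 nM final with 50 μM final PyroGlu-Pro-Arg-AMC in 20 mM Hepes pH 7.4, 150 mM NaCl, 0.02% Tween 20. Two-fold serial compound dilutions; fluorescence read every minute for 30 min at 30° C. IC50 from a four-parameter Hill fit.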

Factor Xa = Factor Xa (Homo sapiens (Human), UniProt P00742); assay: Dose response assay for protease inhibitors: Factor Xa; details: selectivity, Factor Xa over Factor XIa
Outline: as §1

Thrombin = Thrombin (Homo sapiens (Human), UniProt P00734); assay: Dose response assay for protease inhibitors: thrombin; details: selectivity, thrombin over Factor XIa
Outline: as §1

Sequence of Factor XIa (P03951 388-625): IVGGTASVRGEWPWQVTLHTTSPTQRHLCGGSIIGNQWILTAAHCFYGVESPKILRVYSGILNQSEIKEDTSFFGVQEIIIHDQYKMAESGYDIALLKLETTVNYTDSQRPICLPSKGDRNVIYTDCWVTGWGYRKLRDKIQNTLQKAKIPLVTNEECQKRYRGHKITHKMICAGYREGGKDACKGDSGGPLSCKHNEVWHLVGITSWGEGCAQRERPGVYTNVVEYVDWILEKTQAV
Sequence of Factor XIa (P03951 19-387 partner): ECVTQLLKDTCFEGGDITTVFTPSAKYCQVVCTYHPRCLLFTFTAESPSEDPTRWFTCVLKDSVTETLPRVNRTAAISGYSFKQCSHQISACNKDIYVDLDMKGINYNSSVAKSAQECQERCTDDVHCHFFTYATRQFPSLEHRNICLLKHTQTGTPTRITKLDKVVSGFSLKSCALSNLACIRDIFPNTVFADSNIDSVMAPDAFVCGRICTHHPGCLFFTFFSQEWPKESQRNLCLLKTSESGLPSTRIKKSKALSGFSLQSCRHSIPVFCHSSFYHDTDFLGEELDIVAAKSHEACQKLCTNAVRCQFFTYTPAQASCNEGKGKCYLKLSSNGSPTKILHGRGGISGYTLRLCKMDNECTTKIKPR
Sequence of Factor Xa (P00742 235-488): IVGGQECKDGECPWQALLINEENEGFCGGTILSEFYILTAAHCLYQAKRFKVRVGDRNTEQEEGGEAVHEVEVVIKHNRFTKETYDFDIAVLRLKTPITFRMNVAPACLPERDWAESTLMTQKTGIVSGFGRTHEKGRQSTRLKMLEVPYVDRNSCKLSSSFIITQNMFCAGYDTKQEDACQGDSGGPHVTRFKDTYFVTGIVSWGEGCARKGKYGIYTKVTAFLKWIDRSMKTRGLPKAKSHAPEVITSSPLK
Sequence of Factor Xa (P00742 41-179 partner): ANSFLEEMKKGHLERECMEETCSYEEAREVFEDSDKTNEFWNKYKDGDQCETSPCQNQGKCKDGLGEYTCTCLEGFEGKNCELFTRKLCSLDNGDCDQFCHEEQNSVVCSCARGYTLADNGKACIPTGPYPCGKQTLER

| SMILES | pIC50 (Factor XIa) | Ratio: FXa/FXIa (Factor Xa) | Ratio: Thrombin/FXIa (Thrombin) | Ratio: Trypsin/FXIa (Trypsin) |
| --- | --- | --- | --- | --- |
| CC[C@@H](NC(=O)N1C(=O)[C@H](Cc2cc(C)nc(N)c2)[C@H]1C(=O)N(C)c1nccn1C)c1cc(C)ccc1F [Compound 1-112, (2S,3R)-3-((2-amino-6-methylpyridin-4-yl)methyl)-N2-(1-methyl-1H-imidazol-2-yl)-N1-((R)-1-(2-fluoro-5-methylphenyl)propyl)-N2-methyl-4-oxoazetidine-1,2-dicarboxamide] | 7.00 to 8.00 | I (“I” indicates > 500) | H (“H” indicates 101-1000) | G (“G” indicates 1-100) |
| CC[C@@H](NC(=O)N1C(=O)[C@H](Cc2cc(C)nc(N)c2)[C@H]1C(=O)N(C)c1ccn(C)n1)c1cc(F)ccc1F [Compound 1-144, (2S,3R)-3-((2-amino-6-methylpyridin-4-yl)methyl)-N2-(1-methyl-1H-pyrazol-3-yl)-N1-((R)-1-(2,5-difluorophenyl)propyl)-N2-methyl-4-oxoazetidine-1,2-dicarboxamide] | > 8.00 | I (“I” indicates > 500) | H (“H” indicates 101-1000) | G (“G” indicates 1-100) |
| CC[C@@H](NC(=O)N1C(=O)[C@H](Cc2cc(C)nc(N)c2)[C@H]1C(=O)N(C)c1ccn(C)n1)c1cccc(F)c1F [Compound 1-146, (2S,3R)-3-((2-amino-6-methylpyridin-4-yl)methyl)-N2-(1-methyl-1H-pyrazol-3-yl)-N1-((R)-1-(2,3-difluorophenyl)propyl)-N2-methyl-4-oxoazetidine-1,2-dicarboxamide] | > 8.00 | I (“I” indicates > 500) | H (“H” indicates 101-1000) | G (“G” indicates 1-100) |
| CC[C@@H](NC(=O)N1C(=O)[C@H](Cc2cc(C)nc(N)c2)[C@H]1C(=O)N(C)c1ccnn1C)c1cccc(F)c1F [Compound 1-151, (2S,3R)-3-((2-amino-6-methylpyridin-4-yl)methyl)-N2-(1-methyl-1H-pyrazol-5-yl)-N1-((R)-1-(2,3-difluorophenyl)propyl)-N2-methyl-4-oxoazetidine-1,2-dicarboxamide] | > 8.00 | I (“I” indicates > 500) | I (“I” indicates > 500) | G (“G” indicates 1-100) |
| CC[C@@H](NC(=O)N1C(=O)[C@H](Cc2cc(C)nc(N)c2)[C@H]1C(=O)N(C)c1ccnn1C)c1cc(F)ccc1C [Compound 1-162, (2S,3R)-3-((2-amino-6-methylpyridin-4-yl)methyl)-N2-(1-methyl-1H-pyrazol-5-yl)-N1-((R)-1-(5-fluoro-2-methylphenyl)propyl)-N2-methyl-4-oxoazetidine-1,2-dicarboxamide] | > 8.00 | I (“I” indicates > 500) | I (“I” indicates > 500) | G (“G” indicates 1-100) |
| CC[C@@H](NC(=O)N1C(=O)[C@H](Cc2cc(C)nc(N)c2)[C@H]1C(=O)N(C)c1ccnn1C)c1cc(F)ccc1F [Compound 1-163, (2S,3R)-3-((2-amino-6-methylpyridin-4-yl)methyl)-N2-(1-methyl-1H-pyrazol-5-yl)-N1-((R)-1-(2,5-difluorophenyl)propyl)-N2-methyl-4-oxoazetidine-1,2-dicarboxamide] | > 8.00 | I (“I” indicates > 500) | I (“I” indicates > 500) | G (“G” indicates 1-100) |

Further lines, with some results ahead:

| pIC50 (Factor XIa) | Ratio: FXa/FXIa (Factor Xa) | Ratio: Thrombin/FXIa (Thrombin) | SMILES | Ratio: Trypsin/FXIa (Trypsin) |
| --- | --- | --- | --- | --- |
| > 8.00 | H (“H” indicates 101-1000) | H (“H” indicates 101-1000) | CC[C@@H](NC(=O)N1C(=O)[C@H](Cc2cc(C)nc(N)c2)[C@H]1C(=O)N(C)c1nccn1C)c1ccc(C)c(Cl)c1 [Compound 1-113, (2S,3R)-3-((2-amino-6-methylpyridin-4-yl)methyl)-N2-(1-methyl-1H-imidazol-2-yl)-N1-((R)-1-(3-chloro-4-methylphenyl)propyl)-N2-methyl-4-oxoazetidine-1,2-dicarboxamide] | G (“G” indicates 1-100) |
| > 8.00 | H (“H” indicates 101-1000) | H (“H” indicates 101-1000) | CC[C@@H](NC(=O)N1C(=O)[C@H](Cc2ccnc(N)c2)[C@H]1C(=O)N(C)c1nccn1C)c1ccc(C)cc1C [Compound 1-114, (2S,3R)-3-((2-aminopyridin-4-yl)methyl)-N2-(1-methyl-1H-imidazol-2-yl)-N1-((R)-1-(2,4-dimethylphenyl)propyl)-N2-methyl-4-oxoazetidine-1,2-dicarboxamide] | G (“G” indicates 1-100) |
| > 8.00 | I (“I” indicates > 500) | H (“H” indicates 101-1000) | CC[C@@H](NC(=O)N1C(=O)[C@H](Cc2ccnc(N)c2)[C@H]1C(=O)N(C)c1ccn(C)n1)c1cc(F)ccc1F [Compound 1-123, (2S,3R)-3-((2-aminopyridin-4-yl)methyl)-N2-(1-methyl-1H-pyrazol-3-yl)-N1-((R)-1-(2,5-difluorophenyl)propyl)-N2-methyl-4-oxoazetidine-1,2-dicarboxamide] | G (“G” indicates 1-100) |
| > 8.00 | I (“I” indicates > 500) | H (“H” indicates 101-1000) | CC[C@@H](NC(=O)N1C(=O)[C@H](Cc2ccnc(N)c2)[C@H]1C(=O)N(C)c1ccn(C)n1)c1cc(C)ccc1F [Compound 1-125, (2S,3R)-3-((2-aminopyridin-4-yl)methyl)-N2-(1-methyl-1H-pyrazol-3-yl)-N1-((R)-1-(2-fluoro-5-methylphenyl)propyl)-N2-methyl-4-oxoazetidine-1,2-dicarboxamide] | G (“G” indicates 1-100) |
| > 8.00 | H (“H” indicates 101-1000) | H (“H” indicates 101-1000) | CC[C@@H](NC(=O)N1C(=O)[C@H](Cc2ccnc(N)c2)[C@H]1C(=O)N(C)c1ccn(C)n1)c1ccc(C)c(C)c1 [Compound 1-127, (2S,3R)-3-((2-aminopyridin-4-yl)methyl)-N2-(1-methyl-1H-pyrazol-3-yl)-N1-((R)-1-(3,4-dimethylphenyl)propyl)-N2-methyl-4-oxoazetidine-1,2-dicarboxamide] | G (“G” indicates 1-100) |
| > 8.00 | H (“H” indicates 101-1000) | H (“H” indicates 101-1000) | CC[C@@H](NC(=O)N1C(=O)[C@H](Cc2ccnc(N)c2)[C@H]1C(=O)N(C)c1ccn(C)n1)c1cccc(F)c1C [Compound 1-128, (2S,3R)-3-((2-aminopyridin-4-yl)methyl)-N2-(1-methyl-1H-pyrazol-3-yl)-N1-((R)-1-(2-methyl-3-fluorophenyl)propyl)-N2-methyl-4-oxoazetidine-1,2-dicarboxamide] | G (“G” indicates 1-100) |
| > 8.00 | H (“H” indicates 101-1000) | H (“H” indicates 101-1000) | CC[C@@H](NC(=O)N1C(=O)[C@H](Cc2ccnc(N)c2)[C@H]1C(=O)N(C)c1ccn(C)n1)c1ccc(C)c(Cl)c1 [Compound 1-129, (2S,3R)-3-((2-aminopyridin-4-yl)methyl)-N2-(1-methyl-1H-pyrazol-3-yl)-N1-((R)-1-(3-chloro-4-methylphenyl)propyl)-N2-methyl-4-oxoazetidine-1,2-dicarboxamide] | G (“G” indicates 1-100) |
| > 8.00 | I (“I” indicates > 500) | H (“H” indicates 101-1000) | CC[C@@H](NC(=O)N1C(=O)[C@H](Cc2ccnc(N)c2)[C@H]1C(=O)N(C)c1ccn(C)n1)c1cccc(F)c1F [Compound 1-134, (2S,3R)-3-((2-aminopyridin-4-yl)methyl)-N2-(1-methyl-1H-pyrazol-3-yl)-N1-((R)-1-(2,3-difluorophenyl)propyl)-N2-methyl-4-oxoazetidine-1,2-dicarboxamide] | G (“G” indicates 1-100) |
| > 8.00 | H (“H” indicates 101-1000) | H (“H” indicates 101-1000) | CC[C@@H](NC(=O)N1C(=O)[C@H](Cc2ccnc(N)c2)[C@H]1C(=O)N(C)c1ccn(C)n1)c1ccc(C)c(F)c1 [Compound 1-136, (2S,3R)-3-((2-aminopyridin-4-yl)methyl)-N2-(1-methyl-1H-pyrazol-3-yl)-N1-((R)-1-(3-fluoro-4-methylphenyl)propyl)-N2-methyl-4-oxoazetidine-1,2-dicarboxamide] | G (“G” indicates 1-100) |
| > 8.00 | I (“I” indicates > 500) | H (“H” indicates 101-1000) | CC[C@@H](NC(=O)N1C(=O)[C@H](Cc2cc(C)nc(N)c2)[C@H]1C(=O)N(C)c1ccn(C)n1)c1cc(C)ccc1F [Compound 1-143, (2S,3R)-3-((2-amino-6-methylpyridin-4-yl)methyl)-N2 (1-methyl-1H-pyrazol-3-yl)-N1-((R)-1-(2-fluoro-5-methylphenyl)propyl)-N2-methyl-4-oxoazetidine-1,2-dicarboxamide] | G (“G” indicates 1-100) |
